22 molecules from patent publication US10758534B2 (Vertex Pharmaceuticals Incorporated, priority 2014, dated 2020) can be followed below.

Structures are written as SMILES.

In the first assay the target is T1, F508del (Homo sapiens, UniProt P13569, DEL508-508).
T1 construct: expressed in transfected cells
T1 sequence (P13569 with tags, fused parts or gaps DEL508-508): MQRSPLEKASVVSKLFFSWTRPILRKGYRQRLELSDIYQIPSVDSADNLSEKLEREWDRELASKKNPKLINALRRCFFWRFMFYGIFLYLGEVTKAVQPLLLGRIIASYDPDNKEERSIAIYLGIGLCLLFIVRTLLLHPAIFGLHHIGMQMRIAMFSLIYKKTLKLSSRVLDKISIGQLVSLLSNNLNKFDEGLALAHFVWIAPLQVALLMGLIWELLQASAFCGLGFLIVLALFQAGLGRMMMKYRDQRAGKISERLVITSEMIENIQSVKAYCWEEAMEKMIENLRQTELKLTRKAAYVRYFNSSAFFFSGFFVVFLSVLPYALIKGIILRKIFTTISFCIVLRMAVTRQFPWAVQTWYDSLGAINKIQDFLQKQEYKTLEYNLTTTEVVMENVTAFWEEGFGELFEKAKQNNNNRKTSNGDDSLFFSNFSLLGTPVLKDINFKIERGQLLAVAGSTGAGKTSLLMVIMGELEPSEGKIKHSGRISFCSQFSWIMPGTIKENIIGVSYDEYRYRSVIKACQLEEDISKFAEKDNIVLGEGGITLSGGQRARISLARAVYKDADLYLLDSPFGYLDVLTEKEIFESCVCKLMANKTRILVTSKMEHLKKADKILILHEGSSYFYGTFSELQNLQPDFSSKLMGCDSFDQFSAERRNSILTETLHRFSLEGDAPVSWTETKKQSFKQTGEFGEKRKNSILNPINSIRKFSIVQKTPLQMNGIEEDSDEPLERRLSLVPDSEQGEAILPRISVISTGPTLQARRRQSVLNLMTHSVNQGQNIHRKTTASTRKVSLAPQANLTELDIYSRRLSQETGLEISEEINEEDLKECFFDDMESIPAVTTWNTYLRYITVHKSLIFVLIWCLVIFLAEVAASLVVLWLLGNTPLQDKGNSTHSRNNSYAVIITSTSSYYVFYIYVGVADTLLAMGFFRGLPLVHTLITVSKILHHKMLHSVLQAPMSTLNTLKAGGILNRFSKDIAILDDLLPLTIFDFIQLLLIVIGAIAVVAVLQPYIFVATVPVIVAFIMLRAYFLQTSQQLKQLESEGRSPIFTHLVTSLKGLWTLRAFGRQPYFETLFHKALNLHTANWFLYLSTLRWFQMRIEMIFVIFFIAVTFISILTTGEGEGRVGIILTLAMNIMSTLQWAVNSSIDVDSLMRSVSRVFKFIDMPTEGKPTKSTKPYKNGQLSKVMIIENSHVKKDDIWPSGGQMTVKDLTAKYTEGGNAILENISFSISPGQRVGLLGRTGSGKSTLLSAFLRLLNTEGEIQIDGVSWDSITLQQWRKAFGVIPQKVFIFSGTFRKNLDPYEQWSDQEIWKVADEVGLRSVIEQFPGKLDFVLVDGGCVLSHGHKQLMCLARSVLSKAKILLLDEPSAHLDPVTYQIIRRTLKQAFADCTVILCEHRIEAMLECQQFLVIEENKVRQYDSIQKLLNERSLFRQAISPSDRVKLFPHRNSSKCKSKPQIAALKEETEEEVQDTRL
In words: Protocol 2: FRET membrane potential optical assay (VIPR), identification of correction compounds. In kind it is cell-based.
Details: not given
Put shortly: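 Mouse NIH3T3 cells, stable F508del; cpd 16 hrs, 37° C., serum-free; pos ctrl 27° C. 16 hrs. Rinse in Krebs Ringers, dye load, then add 10 μM forskolin + 20 μM genistein with Cl^−-free (gluconate) medium; depolarization by FRET voltage dyes.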
A word on the EC30: it is the concentration at which the effect reaches the 30% level. For `C[C@@H]1CN(c2nc(C3=CC4CCC3C4)ccc2C(=O)NS(=O)(=O)c2cccc(N)n2)C(C)(C)C1` (stereo partly shown) [Compound 2703], the EC30 was < 3000 nM.

Staying with this assay, now noted: F508del CFTR modulator activity; compounds of Table 1; read-out: EC30.
As to `CC1CN(c2ncccc2C(=O)NS(=O)(=O)c2cccc(Oc3cc(Cl)cc(C#N)c3)n2)C(C)(C)C1` (stereo not shown) [Compound 2177, N—[[6-(3-chloro-5-cyano-phenoxy)-2-pyridyl]sulfonyl]-2-(2,2,4-trimethylpyrrolidin-1-yl)pyridine-3-carboxamide], the concentration for an effect of 30% (EC30) is < 3000 nM. Still for that read-out and setting: with `C[C@@H]1CN(c2ncccc2C(=O)NS(=O)(=O)N2CC[C@@H](NCCCc3ccc(Cl)cc3)C2)C(C)(C)C1` [Compound 2710] the figure was 3000 to 10000 nM; with `CC1CN(c2ncc(C3=CCN(C(=O)OC(C)(C)C)CC3)cc2C(=O)NS(=O)(=O)c2cccc(N)n2)C(C)(C)C1` (stereo not shown) [Compound 2129, tert-butyl 4-[5-[(6-amino-2-pyridyl)sulfonylcarbamoyl]-6-(2,2,4-trimethylpyrrolidin-1-yl)-3-pyridyl]-3,6-dihydro-2H-pyridine-1-carboxylate], < 3000 nM. Still for that read-out and setting: with `CC(C)COc1cc(F)cc(-c2ccc(C(=O)NS(=O)(=O)N3CC[C@@H](O)C3)c(N3C[C@@H](C)CC3(C)C)n2)c1` [Compound 2427, 6-(3-fluoro-5-isobutoxy-phenyl)-N-[(3R)-3-hydroxypyrrolidin-1-yl]sulfonyl-2-[(4S)-2,2,4-trimethylpyrrolidin-1-yl]pyridine-3-carboxamide] the figure was < 3000 nM. The same measure, in the same setting: the result for `CC1CN(c2ncccc2C(=O)NS(=O)(=O)c2cccc(Oc3ccc4ccccc4c3)n2)C(C)(C)C1` (stereo not shown) [Compound 2611, N—[[6-(2-naphthyloxy)-2-pyridyl]sulfonyl]-2-(2,2,4-trimethylpyrrolidin-1-yl)pyridine-3-carboxamide] reads < 3000 nM; that for `CC(C)COc1cc(F)cc(-c2ccc(C(=O)NS(=O)(=O)c3cccc(N)n3)c(N3CC(F)(F)CC3(C)C)n2)c1` [Compound 2631, N-[(6-amino-2-pyridyl)sulfonyl]-2-(4,4-difluoro-2,2-dimethyl-pyrrolidin-1-yl)-6-(3-fluoro-5-isobutoxy-phenyl)pyridine-3-carboxamide], < 3000 nM.

Turning to `CC(Oc1nc(N2C[C@@H](C)CC2(C)C)c(C(=O)NS(=O)(=O)c2cccc(N)n2)cc1F)c1ccncc1` (stereo partly drawn) [Compound 2212, N-[(6-amino-2-pyridyl)sulfonyl]-5-fluoro-6-[1-(4-pyridyl)ethoxy]-2-[(4S)-2,2,4-trimethylpyrrolidin-1-yl]pyridine-3-carboxamide], the EC30 was in the range of 3000 to 10000 nM. Same read-out and setting: with `COc1cccc(Nc2cccc(S(=O)(=O)NC(=O)c3cccnc3N3CC(C)CC3(C)C)n2)n1` (stereo not shown) [Compound 2420, N—[[6-[(6-methoxy-2-pyridyl)amino]-2-pyridyl]sulfonyl]-2-(2,2,4-trimethylpyrrolidin-1-yl)pyridine-3-carboxamide] the figure was 3000 to 10000 nM. As for `CCOc1ccc(C)cc1-c1ccc(C(=O)NS(=O)(=O)c2ccc[nH]c2=O)c(N2C[C@@H](C)CC2(C)C)n1` [Compound 2410, 6-(2-ethoxy-5-methyl-phenyl)-N-[(2-oxo-1H-pyridin-3-yl)sulfonyl]-2-[(4S)-2,2,4-trimethylpyrrolidin-1-yl]pyridine-3-carboxamide], the EC30 is < 3000 nM.

As to `CC(C)Oc1c(F)cc(-c2ccc(C(=O)NS(=O)(=O)c3cccc(N)n3)c(N3C[C@@H](C)CC3(C)C)n2)cc1F` [Compound 2608, N-[(6-amino-2-pyridyl)sulfonyl]-6-(3,5-difluoro-4-isopropoxy-phenyl)-2-[(4S)-2,2,4-trimethylpyrrolidin-1-yl]pyridine-3-carboxamide], the EC30 is < 3000 nM. On the same count and under the same terms, the result for `C[C@@H]1CN(c2nc(-c3cccc(C(F)(F)F)c3)ccc2C(=O)NS(=O)(=O)c2cccc(N)n2)C(C)(C)C1` [Compound 2392, N-[(6-amino-2-pyridyl)sulfonyl]-6-[3-(trifluoromethyl)phenyl]-2-[(4S)-2,2,4-trimethylpyrrolidin-1-yl]pyridine-3-carboxamide] reads < 3000 nM.

The same assay, now with this note: Table 3; compounds of Table 1 as modulators of CFTR activity; protocol not stated.
Consider `Cc1cc(C)c(Oc2nc(-c3ccc(C(=O)NC(C)C)c(F)c3)ccc2C(=O)NS(=O)(=O)c2cccc(N)n2)c(C)c1` [Compound 543, N-[(6-amino-2-pyridyl)sulfonyl]-6-[3-fluoro-4-(isopropylcarbamoyl)phenyl]-2-(2,4,6-trimethylphenoxy)pyridine-3-carboxamide], for which the EC30 entry is “++ (“++” means between 3 uM and 10 uM)”. Turning to `Cc1ccc(S(=O)(=O)NC(=O)c2cc(C(C)(C)C)nn2Cc2c(C)cccc2C)cc1N` [Compound 312, N-(3-amino-4-methyl-phenyl)sulfonyl-5-tert-butyl-2-[(2,6-dimethylphenyl)methyl]pyrazole-3-carboxamide], the EC30 result is “+++ (“+++” means <3 uM)”. As for `Cc1cccc(C)c1Cn1nc(-c2ccc(Cl)cc2)cc1C(=O)NS(=O)(=O)c1ccccc1` [Compound 28, N-(benzenesulfonyl)-5-(4-chlorophenyl)-2-[(2,6-dimethylphenyl)methyl]pyrazole-3-carboxamide], the EC30 entry was “+++ (“+++” means <3 uM)”. Regarding `CC(C)COc1cc(F)cc(-c2ccc(C(=O)NS(=O)(=O)c3cccc(N)n3)c(OCC3CC3(F)F)n2)c1` (stereo not shown) [Compound 769, N-[(6-amino-2-pyridyl)sulfonyl]-2-[(2,2-difluorocyclopropyl)methoxy]-6-(3-fluoro-5-isobutoxy-phenyl)pyridine-3-carboxamide], the EC30 entry was “+++ (“+++” means <3 uM)”.

Regarding `Cc1ccc(-c2nc(C(C)(C)C)ccc2C(=O)NS(=O)(=O)c2ccccc2)cc1` [Compound 74, N-(benzenesulfonyl)-6-tert-butyl-2-(p-tolyl)pyridine-3-carboxamide], the EC30 entry is reported as “+++ (“+++” means <3 uM)”. On the same count and under the same terms, the result for `Cc1ccc(-n2c(C(=O)NS(=O)(=O)c3cccc(N)n3)cc3cc(C)ccc32)cc1` [Compound 653, N-[(6-amino-2-pyridyl)sulfonyl]-5-methyl-1-(p-tolyl)indole-2-carboxamide] reads “+ (“+” means greater than 10 uM)”. The same measure, in the same setting: the result for `CCOc1ccc(F)c(-c2ccc(C(=O)NS(=O)(=O)c3cccc(N)n3)c(Oc3c(C)cc(C)cc3C)n2)c1` [Compound 599, N-[(6-amino-2-pyridyl)sulfonyl]-6-(5-ethoxy-2-fluoro-phenyl)-2-(2,4,6-trimethylphenoxy)pyridine-3-carboxamide] reads “+++ (“+++” means <3 uM)”; that for `COc1ccc(OC)c(-c2cc(C(=O)NS(=O)(=O)c3ccccc3)n(Cc3c(C)cccc3C)n2)c1` [Compound 100, N-(benzenesulfonyl)-5-(2,5-dimethoxyphenyl)-2-[(2,6-dimethylphenyl)methyl]pyrazole-3-carboxamide], “+++ (“+++” means <3 uM)”; that for `CC(C)(C)c1ccc(C(=O)NS(=O)(=O)c2ccc(N)cc2)c(C2CCCCC2)n1` [Compound 537, N-(4-aminophenyl)sulfonyl-6-tert-butyl-2-cyclohexyl-pyridine-3-carboxamide], “+++ (“+++” means <3 uM)”.

On to `CC(C)COc1cc(F)cc(-c2ccc(C(=O)NS(=O)(=O)c3cccc(N)n3)c(N3CCC[C@H]3C)n2)c1` [Compound 694, N-[(6-amino-2-pyridyl)sulfonyl]-6-(3-fluoro-5-isobutoxy-phenyl)-2-[(2R)-2-methylpyrrolidin-1-yl]pyridine-3-carboxamide], for which the EC30 entry was “+++ (“+++” means <3 uM)”.
